Data set [1] can be described thus: Relative quantification of urinary aPM (UPLC-QTOF-MS, creatinine-normalized) after controlled α-pinene inhalation. The class given is in vivo, human. The following applies: for Frequency of occurrence (percentage of samples with analyte detected) / Maximum response (highest peak response across all urine samples) / Observed Tmax: human urine after α-pinene inhalation; for Proportion (observed) after α-pinene inhalation: share of total response of 22 aPM, averaged over post-exposure samples. On the procedure: (§1) Briefly, for controlled inhalation experiments, eight healthy volunteers were exposed to α-pinene in a custom-built exposure chamber via inhalation from a 15 ml conical tube, containing approximately 100 μl α-pinene, for a duration of 10 min. Urine samples were collected before exposure (0 h) and 0.5, 1, 2, 3, and 4 h after exposure. […] Urine samples were collected both before (0 h) or 4 h after exposure. After collection, the urine samples were centrifuged and stored at −80 °C before analysis. […] Demographic information, including sex, age and race, can be found in Table S1.
(§2) Briefly, after 1:10 dilution, urine samples were separated using an Acquity I-Class UPLC system with an Acquity Premier CSH C18 UPLC column (Waters, MA) with a gradient comprising 0.1 % formic acid in water as the solvent A and 0.1 % formic acid in acetonitrile as the solvent B. Mass Spectrometry Elevated Energy (MS^E) data were collected using a Waters Synapt XS MS (Waters, MA) with an ESI ion source operated in the negative mode. Subsequent analyses of raw files were performed using UNIFI 1.9 and Progenesis QI 3.0 (both from Waters, MA). To validate LC-MS performance, one quality control (QC) sample, prepared by pooling equal amount of each urine sample, was injected after every ten urine sample injections.
(§3) Relative quantification of aPM was performed based on the peak responses normalized to urinary creatinine levels. Urinary creatinine levels were measured using an Ace Axcel Clinical Chemistry System with ACE Creatinine Reagent from Alfa Wassermann (West Caldwell, NJ). Statistical analyses, including ANOVA and Student’s t-tests, were conducted using SAS 9.4 (SAS Institute, NC) to explore differences in aPM across various time points. […] A threshold for statistical significance was defined as p < 0.05.

Data set [2] in a line: Kinetic modeling of urinary aPM with a pseudo one-compartment nonlinear mixed-effects model after α-pinene inhalation. The following applies: for F (%), fraction of metabolite generated from absorbed α-pinene: human urine after 10 min α-pinene inhalation, F normalized to the sum of 22 detected metabolites; for Elimination t1/2 / Ka, first-order generation constant / Ke, first-order elimination rate constant: human urine after α-pinene inhalation, pseudo one-compartment model. The class given is in vivo, human. The text has this:
In this equation, i represents the participant index, j the urine sample index, C the creatinine-normalized peak response, and t the sample collection time ( h).Ka denotes the first-order generation constant ( h^−1 ), and Ke denotes the first-order elimination rate constant h^−1 . F indicates the fraction of specific aPM relative to absorbed α-pinene. The variables D and V refer to the absorbed α-pinene amount and the distribution volume, respectively. Because input data were derived from relative quantification, absolute values of D , V , and F were not available. For simplicity, D and V were fixed at 100 and 1, respectively, and F was normalized relative to the sum of all detected aPM. The error term ε accounts for residual variation.

Data set [3] in a line: aPM in mouse urine after i.p. injection of (+)-α-pinene or (−)-α-pinene. The class given is in vivo, mice (C57BL/6). The following applies: for (1R)-(+)-α-Pinene (Average), proportion of aPM in mouse urine / (1S)-(−)-α-Pinene (Average), proportion of aPM in mouse urine: mouse urine collected overnight, 50 mg/kg; for (1R)-(+)-α-Pinene (Average), proportion of aPM in mouse urine: 50 mg/kg i.p. (+)-α-pinene; for (1S)-(−)-α-Pinene (Average), proportion of aPM in mouse urine: 50 mg/kg i.p. (−)-α-pinene; for R/(R+S): mouse urine, enantiomer specificity; for Detection in mouse urine: after exposure to either α-pinene enantiomer. On the procedure:
Mouse urine was collected after exposures to either (+) or (−) α-pinene to distinguish between metabolites of different enantiomers of α-pinene. Adult male mice (C57BL/6) were intraperitoneally administered with 50 mg/kg body weight of (+)-α-pinene or (−)-α-pinene dissolved in 100 μl sterile saline with 1 % Tween 80.

A short description of data set [4]: Urinary aPM after 4 h greenness (forest) exposure. The following applies: for Frequency of occurrence / Maximum response: human urine, greenness exposure; for Proportion (observed) after greenness exposure: share of total aPM response. It counts as in vivo, human. On the set-up: Maximum response: unit not given here. On the procedure:
as §1, §2, §3

The structures appear in SMILES notation.

The text below walks through data of publication PMC12477777, “Human exposure to green spaces and monoterpenes: discovery and use of α-pinene metabolites as biomarkers” (Environment international, 2025).

As for `CC1(C)C2CCC(C(=O)OC3OC(C(=O)O)C(O)C(O)C3O)C1C2` (single isomer, unassigned) [aPM4c, Dihydromyrtenic acid-GlcA], in data set [1], the “Frequency of occurrence (percentage of samples with analyte detected)” value is 89.6%, the “Maximum response (highest peak response across all urine samples)” value is recorded as 5156, the “Observed Tmax” value was 1 h and the “Proportion (observed) after α-pinene inhalation” value is 0.5%. In data set [2], the “F (%), fraction of metabolite generated from absorbed α-pinene” value (shortened to “F (%), fraction of metabolite generated”) stood at 0.26 ± 0.08%; the “Elimination t1/2” value stood at 90.6 ± 32.4 min; the “Ka, first-order generation constant” value is 1.65 ± 0.67 h⁻¹; the “Ke, first-order elimination rate constant” value was 0.46 ± 0.16 h⁻¹. In data set [3], the “(1R)-(+)-α-Pinene (Average), proportion of aPM in mouse urine” value (shortened to “(1R)-(+)-α-Pinene (Average), proportion”) is recorded as 0.0%; the “(1S)-(−)-α-Pinene (Average), proportion of aPM in mouse urine” value (from here on “(1S)-(−)-α-Pinene (Average), proportion”) came to 0.1%; the “R/(R+S)” value was determined as 0.0%. The same compound returned a Frequency of occurrence in data set [4] of 0.0%.

`CC1(C)C2CCC(C(=O)OC3OC(C(=O)O)C(O)C(O)C3O)C1C2` (single isomer, unassigned) [aPM4d, Dihydromyrtenic acid-GlcA]: in data set [1], the “Frequency of occurrence (percentage of samples with analyte detected)” value is on record as 97.9%, the “Maximum response (highest peak response across all urine samples)” value is 183468 and the “Observed Tmax” value was 1 h. Further, in data set [2], the “F (%), fraction of metabolite generated” value is given as 13.03 ± 5.57%; the “Elimination t1/2” value is 60.6 ± 24 min; the “Ka, first-order generation constant” value was 0.73 ± 0.29 h⁻¹; the “Ke, first-order elimination rate constant” value was determined as 0.68 ± 0.27 h⁻¹. Further, in data set [3], the “Detection in mouse urine” value is recorded as “present in murine samples”; the “(1R)-(+)-α-Pinene (Average), proportion” value was 0.0%; the “(1S)-(−)-α-Pinene (Average), proportion” value was determined as 0.2%; the “R/(R+S)” value is 0.0%. For the same compound, in data set [4], the Frequency of occurrence is 68.8%, the Maximum response came out at 7375 and the “Proportion (observed) after greenness exposure” value turned out to be 9.4%.

On to `CC1(C)C2CCC(C(=O)OC3OC(C(=O)O)C(O)C(O)C3O)C1C2` (single isomer, unassigned) [aPM4e, Dihydromyrtenic acid-GlcA], for which, in data set [1], the “Frequency of occurrence (percentage of samples with analyte detected)” value turned out to be 95.8%, the “Maximum response (highest peak response across all urine samples)” value is recorded as 241782 and the “Observed Tmax” value came to 1 h. In data set [2], the “F (%), fraction of metabolite generated” value was determined as 18.14 ± 6.52%; the “Elimination t1/2” value stood at 59.4 ± 19.8 min; the “Ka, first-order generation constant” value turned out to be 1.26 ± 0.50 h⁻¹; the “Ke, first-order elimination rate constant” value amounted to 0.70 ± 0.24 h⁻¹. Moreover, in data set [3], the “Detection in mouse urine” value was “present in murine samples”; the “(1R)-(+)-α-Pinene (Average), proportion” value is on record as 0.1%; the “(1S)-(−)-α-Pinene (Average), proportion” value came to 0.2%; the “R/(R+S)” value is 24.1%. In data set [4], the Frequency of occurrence is listed as 93.8%, the Maximum response is reported as 27114 and the “Proportion (observed) after greenness exposure” value came to 67.8%.

As for `CC1(C)C2CC1C(OC1OC(C(=O)O)C(O)C(O)C1O)C=C2C(=O)O` (single isomer, unassigned) [aPM5a, Myrtenic acid-4-O-GlcA], in data set [1], the “Frequency of occurrence (percentage of samples with analyte detected)” value worked out at 79.2%, the “Maximum response (highest peak response across all urine samples)” value was 4787, the “Observed Tmax” value is listed as 1 h and the “Proportion (observed) after α-pinene inhalation” value came to 0.3%. In data set [2], the “F (%), fraction of metabolite generated” value came to 0.25 ± 0.09%; the “Elimination t1/2” value is 60 ± 22.8 min; the “Ka, first-order generation constant” value was found to be 1.64 ± 0.77 h⁻¹; the “Ke, first-order elimination rate constant” value is 0.70 ± 0.27 h⁻¹. For the same compound, in data set [3], the “(1R)-(+)-α-Pinene (Average), proportion” value amounted to 0.0%; the “(1S)-(−)-α-Pinene (Average), proportion” value is 0.1%; the “R/(R+S)” value amounted to 0%. The Frequency of occurrence in data set [4] is 0.0%.

Turning to `CC1(C)C2CC1C(OC1OC(C(=O)O)C(O)C(O)C1O)C=C2C(=O)O` (single isomer, unassigned) [aPM5b, Myrtenic acid-4-O-GlcA], in data set [1], the “Frequency of occurrence (percentage of samples with analyte detected)” value is listed as 91.7%, the “Maximum response (highest peak response across all urine samples)” value was determined as 22121, the “Observed Tmax” value is 1 h and the “Proportion (observed) after α-pinene inhalation” value stood at 1.6%. Further, in data set [2], the “F (%), fraction of metabolite generated” value was 1.46 ± 0.57%; the “Elimination t1/2” value came out at 52.2 ± 20.4 min; the “Ka, first-order generation constant” value amounted to 1.74 ± 0.84 h⁻¹; the “Ke, first-order elimination rate constant” value came to 0.80 ± 0.31 h⁻¹. Besides, in data set [3], the “(1R)-(+)-α-Pinene (Average), proportion” value was 0.0% and the “(1S)-(−)-α-Pinene (Average), proportion” value came to 0.0%. Besides, in data set [4], the Frequency of occurrence is given as 6.3%, the Maximum response was 89 and the “Proportion (observed) after greenness exposure” value came to 0.0%.

On to `CC1(C)C2CC1C(OC1OC(C(=O)O)C(O)C(O)C1O)C=C2C(=O)O` (single isomer, unassigned) [aPM5c, Myrtenic acid-4-O-GlcA], for which, in data set [1], the “Frequency of occurrence (percentage of samples with analyte detected)” value is on record as 79.2%, the “Maximum response (highest peak response across all urine samples)” value turned out to be 25963, the “Observed Tmax” value was determined as 1 h and the “Proportion (observed) after α-pinene inhalation” value is 1.2%. In data set [2], the “F (%), fraction of metabolite generated” value turned out to be 1.28 ± 0.53%; the “Elimination t1/2” value was 52.8 ± 21.6 min; the “Ka, first-order generation constant” value was 1.73 ± 0.89 h⁻¹; the “Ke, first-order elimination rate constant” value was found to be 0.79 ± 0.32 h⁻¹. In addition, in data set [3], the “(1R)-(+)-α-Pinene (Average), proportion” value is 0.0% and the “(1S)-(−)-α-Pinene (Average), proportion” value amounted to 0.0%. In data set [4], the Frequency of occurrence stood at 37.5%, the Maximum response is 136 and the “Proportion (observed) after greenness exposure” value came to 0.7%.

As for `CC1(C)C2CC1C(OC1OC(C(=O)O)C(O)C(O)C1O)C=C2C(=O)O` (single isomer, unassigned) [aPM5d, Myrtenic acid-4-O-GlcA], in data set [1], the “Frequency of occurrence (percentage of samples with analyte detected)” value turned out to be 81.3%, the “Maximum response (highest peak response across all urine samples)” value was found to be 5115, the “Observed Tmax” value came out at 1 h and the “Proportion (observed) after α-pinene inhalation” value is given as 0.4%. In addition, in data set [2], the “F (%), fraction of metabolite generated” value is reported as 0.27 ± 0.09%; the “Elimination t1/2” value amounted to 78.6 ± 27.6 min; the “Ka, first-order generation constant” value amounted to 1.33 ± 0.51 h⁻¹; the “Ke, first-order elimination rate constant” value stood at 0.53 ± 0.19 h⁻¹. Also, in data set [3], the “(1R)-(+)-α-Pinene (Average), proportion” value was 0.2%; the “(1S)-(−)-α-Pinene (Average), proportion” value was 0.0%; the “R/(R+S)” value came out at 100%. Also, the Frequency of occurrence in data set [4] was 0.0%.

In the case of `CC1(C)C2CC1C(OC1OC(C(=O)O)C(O)C(O)C1O)C=C2C(=O)O` (single isomer, unassigned) [aPM5e, Myrtenic acid-4-O-GlcA], in data set [1], the “Frequency of occurrence (percentage of samples with analyte detected)” value was 72.9%, the “Observed Tmax” value worked out at 1 h and the “Proportion (observed) after α-pinene inhalation” value worked out at 0.3%. In data set [2], the “F (%), fraction of metabolite generated” value is 0.38 ± 0.16%; the “Elimination t1/2” value came out at 45.6 ± 16.8 min; the “Ka, first-order generation constant” value worked out at 0.91 ± 0.36 h⁻¹; the “Ke, first-order elimination rate constant” value is 0.91 ± 0.34 h⁻¹. Further, in data set [3], the “(1R)-(+)-α-Pinene (Average), proportion” value is reported as 0.0%; the “(1S)-(−)-α-Pinene (Average), proportion” value was 0.3%; the “R/(R+S)” value turned out to be 0%. Also, in data set [4], the Frequency of occurrence worked out at 25.0%, the Maximum response is listed as 93 and the “Proportion (observed) after greenness exposure” value worked out at 1.0%.
